Experimental data published in the supplement of paper PMC10307832.

Assays:
Test in all cases: relative viability (nuclei count vs DMSO), 5 days (fraction); higher = more cells survive
[1] = compound: O=C(NC1CCNCC1)c1n[nH]cc1NC(=O)c1c(Cl)cccc1Cl [AT-7519] + CC1(C)CCC(c2ccc(Cl)cc2)=C(CN2CCN(c3ccc(C(=O)NS(=O)(=O)c4ccc(N[C@H](CCN5CCOCC5)CSc5ccccc5)c(S(=O)(=O)C(F)(F)F)c4)cc3)CC2)C1 [Navitoclax] (partner 0.5 µM)
Summary of the method: (§1)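 The day after seeding in 1536-well plates, lung cancer cell lines were treated by pin tool with a single drug, or with a fixed anchor-drug dose together with five library-drug doses (not always all listed) in √10 steps. After 5 days, a combined fix-and-stain solution (final 0.05% Triton X-100, 1% formaldehyde, 1 ug/ml Hoechst) was added. Nuclei counted on 4× images gave relative viability as treated counts over vehicle counts, reported as the median of duplicate plates.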

[2] = compound: C1=CC2=C(C=C(C(=C2N=C1)O)N=NC3=CC4=C(C=C3)C=C(C=C4)S(=O)(=O)O)S(=O)(=O)O + O=C(CCCCCCC(=O)Nc1ccccc1)NO [Vorinostat] (partner 1 µM)
Summary of the method: as §1

[3] = compound: O=C(NC1CCNCC1)c1n[nH]cc1NC(=O)c1c(Cl)cccc1Cl [AT-7519] + CC(=O)Nc1cccc(-n2c(=O)n(C3CC3)c(=O)c3c(Nc4ccc(I)cc4F)n(C)c(=O)c(C)c32)c1 [Trametinib] (partner 0.02 µM)
Summary of the method: as §1

[4] = compound: C1=CC2=C(C=C(C(=C2N=C1)O)N=NC3=CC4=C(C=C3)C=C(C=C4)S(=O)(=O)O)S(=O)(=O)O + COc1cc2c(Oc3ccc(NC(=O)C4(C(=O)Nc5ccc(F)cc5)CC4)cc3F)ccnc2cc1OCCCN1CCOCC1 [Foretinib] (partner 0.25 µM)
Summary of the method: as §1

Row | Cell Line | relative viability ([1]; first compound 0.01 µM) | relative viability ([1]; first compound 0.03162 µM) | relative viability ([1]; first compound 0.3162 µM) | relative viability ([1]; first compound 1 µM) | relative viability ([2]; first compound 0.08 µM) | relative viability ([2]; first compound 0.253 µM) | relative viability ([2]; first compound 0.8 µM) | relative viability ([2]; first compound 2.53 µM) | relative viability ([2]; first compound 8 µM) | relative viability ([3]; first compound 0.01 µM) | relative viability ([3]; first compound 0.03162 µM) | relative viability ([3]; first compound 0.3162 µM) | relative viability ([3]; first compound 1 µM) | relative viability ([4]; first compound 0.08 µM) | relative viability ([4]; first compound 0.253 µM) | relative viability ([4]; first compound 0.8 µM) | relative viability ([4]; first compound 2.53 µM) | relative viability ([4]; first compound 8 µM)
1 | 201T | 1.19 | 1.17 | 1.27 | 1.25 | 0.997 | 1.04 | 0.961 | 1.08 | 0.942 | 0.731 | 0.798 | 0.684 | 0.64 | 1.21 | 1.14 | 1.15 | 1.15 | 1.05
2 | A549 | 1.18 | 1.25 | 1.15 | 0.837 | – | – | – | – | – | – | – | – | – | 1.06 | 0.954 | 0.929 | 0.928 | 0.928
3 | A-427 | 0.973 | 0.899 | 1.01 | 0.599 | 0.894 | 0.821 | 0.796 | 0.861 | 0.924 | 0.728 | 0.71 | 0.716 | 0.338 | 0.986 | 1.06 | 1.01 | 1.08 | 1.03
4 | ABC-1 | – | – | – | – | 0.875 | 1.12 | 0.943 | 1.49 | 0.982 | – | – | – | – | 1.19 | 1.02 | 0.915 | 1.27 | 0.374
5 | BEN | 0.0644 | 0.0591 | 0.069 | 0.0528 | 0.562 | 0.695 | 0.526 | 0.599 | 0.589 | 0.99 | 1.04 | 0.885 | 1.11 | 0.489 | 0.521 | 0.732 | 0.686 | 0.429
6 | CAL-12T | 1.21 | 1.05 | 0.855 | 0.128 | 0.916 | 0.571 | 0.668 | 0.752 | 0.725 | 0.403 | 0.289 | 0.217 | 0.131 | 1.08 | 1.25 | 1.12 | 1.06 | 0.772
7 | COR-L23 | 1.24 | 1.15 | 0.774 | 0.138 | 0.484 | 0.396 | 0.418 | 0.449 | 0.599 | 0.83 | 0.643 | 0.469 | 0.103 | 1.01 | 0.961 | 1.02 | 1.06 | 0.995
8 | COR-L 105 | 0.766 | 0.721 | 0.644 | 0.347 | 0.852 | 0.86 | 0.742 | 0.866 | 0.881 | 0.438 | 0.382 | 0.427 | 0.296 | 0.961 | 0.94 | 1.03 | 1.02 | 0.886
